Measurements reported in ChEMBL document CHEMBL1146436, “Bioactive alkaloids from Illigera luzonensis” (1997).
Activity calls are given as the source filed them. The rule behind the calls is not given here.

Key:
[1] = Antiplatelet activity against arachidonic acid-induced rabbit platelet aggregation assessed as platelet aggregation at 10 ug/ml preincubated for 3 mins by turbidimetric method relative to control; type: functional, Oryctolagus cuniculus
[2] = Antiplatelet activity against collagen-induced rabbit platelet aggregation assessed as platelet aggregation at 100 ug/ml preincubated for 3 mins by turbidimetric method relative to control; type: functional, Oryctolagus cuniculus
[3] = Antiplatelet activity against ADP-induced rabbit platelet aggregation assessed as platelet aggregation at 100 ug/ml preincubated for 3 mins by turbidimetric method relative to control; type: functional, Oryctolagus cuniculus
[4] = Antiplatelet activity against arachidonic acid-induced rabbit platelet aggregation assessed as platelet aggregation at 50 ug/ml preincubated for 3 mins by turbidimetric method relative to control; type: functional, Oryctolagus cuniculus
[5] = Antiplatelet activity against PAF-induced rabbit platelet aggregation assessed as platelet aggregation at 100 ug/ml preincubated for 3 mins by turbidimetric method relative to control; type: functional, Oryctolagus cuniculus
[6] = Antiplatelet activity against arachidonic acid-induced rabbit platelet aggregation assessed as platelet aggregation at 5 ug/ml preincubated for 3 mins by turbidimetric method relative to control; type: functional, Oryctolagus cuniculus
[7] = Antiplatelet activity against arachidonic acid-induced rabbit platelet aggregation assessed as platelet aggregation at 100 ug/ml preincubated for 3 mins by turbidimetric method relative to control; type: functional, Oryctolagus cuniculus
[8] = Antiplatelet activity against arachidonic acid-induced rabbit platelet aggregation assessed as platelet aggregation at 20 ug/ml preincubated for 3 mins by turbidimetric method relative to control; type: functional, Oryctolagus cuniculus
Aorta [9] = assay: Vasorelaxant activity against 3 uM norepinephrine -induced phasic contractions in rat thoracic aorta assessed as muscle contractions at 100 ug/mL pretreated for 15 mins before norepinephrine administration relative to control; type: functional; parameters: scale not given: the % may be the effect or the level left
Aorta [10] = assay: Vasorelaxant activity against 3 uM norepinephrine -induced tonic contractions in rat thoracic aorta assessed as muscle contractions at 100 ug/mL pretreated for 15 mins before norepinephrine administration relative to control; type: functional; parameters: scale not given: the % may be the effect or the level left
Aorta [11] = assay: Vasorelaxant activity against 80 mM potassium-induced contractions in rat thoracic aorta assessed as muscle contractions at 100 ug/mL pretreated for 15 mins before potassium administration relative to control; type: functional; parameters: scale not given: the % may be the effect or the level left
Aorta [12] = assay: Effect on resting tension in rat thoracic aorta at 100 ug/mL pretreated for 15 mins; type: functional, tissue-based
[13] = Antiplatelet activity against PAF-induced rabbit platelet aggregation assessed as platelet aggregation at 25 ug/ml preincubated for 3 mins by turbidimetric method relative to control; type: functional, Oryctolagus cuniculus
[14] = Antiplatelet activity against collagen-induced rabbit platelet aggregation assessed as platelet aggregation at 25 ug/ml preincubated for 3 mins by turbidimetric method relative to control; type: functional, Oryctolagus cuniculus
[15] = Antiplatelet activity against ADP-induced rabbit platelet aggregation assessed as platelet aggregation at 25 ug/ml preincubated for 3 mins by turbidimetric method relative to control; type: functional, Oryctolagus cuniculus
[16] = Antiplatelet activity against arachidonic acid-induced rabbit platelet aggregation assessed as platelet aggregation at 25 ug/ml preincubated for 3 mins by turbidimetric method relative to control; type: functional, Oryctolagus cuniculus
[17] = Antiplatelet activity against arachidonic acid-induced rabbit platelet aggregation assessed as platelet aggregation at 1 ug/ml preincubated for 3 mins by turbidimetric method relative to control; type: functional, Oryctolagus cuniculus
[18] = Antiplatelet activity against arachidonic acid-induced rabbit platelet aggregation assessed as platelet aggregation at 2 ug/ml preincubated for 3 mins by turbidimetric method relative to control; type: functional, Oryctolagus cuniculus
Aorta [19] = assay: Vasorelaxant activity against 80 mM potassium-induced contractions in rat thoracic aorta assessed as muscle contractions at 1 uM pretreated for 15 mins before potassium administration relative to control; type: functional; parameters: scale not given: the % may be the effect or the level left
Aorta [20] = assay: Vasorelaxant activity against 3 uM norepinephrine -induced tonic contractions in rat thoracic aorta assessed as muscle contractions at 1 uM pretreated for 15 mins before norepinephrine administration relative to control; type: functional; parameters: scale not given: the % may be the effect or the level left
Aorta [21] = assay: Vasorelaxant activity against 3 uM norepinephrine -induced phasic contractions in rat thoracic aorta assessed as muscle contractions at 1 uM pretreated for 15 mins before norepinephrine administration relative to control; type: functional; parameters: scale not given: the % may be the effect or the level left

SMILES	Activity [1] [%]	Activity [2] [%]	Activity [3] [%]	Activity [5] [%]	Activity [6] [%]	Activity [7] [%]	Activity [8] [%]	also measured
COc1ccc2c(c1OC)-c1c3c(cc4c1[C@H](C2)N(C)CC4)OCO3	72.5	0	47.9	75.1	83.4	0	50.4	Activity [4]: 0%
COc1ccc2c(c1O)-c1c3c(cc4c1[C@H](C2)N(C)CC4)OCO3 [(S)-BULBOCAPNINE]		83.2	86.8	86.6		89.3		
COc1cc2c(cc1O)C[C@@H]1NCCc3cc4c(c-2c31)OCO4 [ACTINODAPHNINE]	60.5	0	0	0	80.3	0	42.7	Activity (Aorta [9]): 40.6%; Activity (Aorta [10]): 15.5%; Activity [4]: 0%; Activity (Aorta [11]): 41.9%; Activity (Aorta [12]): inactive
CC(=O)Oc1ccccc1C(=O)O [ASPIRIN]						0		Activity [13]: 90.4%; Activity [14]: 87.8%; Activity [15]: 77.9%; Activity [16]: 0%
COc1cc2c(cc1O)C[C@H]1c3c(cc4c(c3-2)OCO4)CCN1C [CASSYTHICINE]	16.2	0	0	68.1	51.4	0	0	Activity (Aorta [9]): 225%; Activity [17]: 82.5%; Activity (Aorta [10]): 98.9%; Activity (Aorta [11]): 112.9%; Activity [18]: 69.1%
COc1cc2c(cc1OC)-c1c3c(cc4c1[C@H](C2)N(C)CC4)OCO3 [DICENTRINE]	55.1	3.2	4	7.6	77.7	0	0	Activity [18]: 83.4%
COc1cc2c(cc1OC)-c1c3c(cc4ccnc(c14)C2=O)OCO3 [DICENTRINONE]								Activity (Aorta [9]): 89.7%; Activity (Aorta [10]): 64%; Activity (Aorta [11]): 111.1%; Activity (Aorta [12]): inactive
COc1c(O)ccc2c1-c1c(OC)c(O)cc3c1[C@H](C2)NCC3 [HERNOVINE]		0	87.2	64.1		47		
COc1ccc2c(c1O)-c1c3c(cc4c1[C@H](C2)NCC4)OCO3 [LAUNOBINE]		29.9	84.2	70.7		11.8		
O=C1c2ccccc2-c2c3c(cc4ccnc1c24)OCO3 [LIRIODENINE]								Activity [13]: 84.1%; Activity [14]: 5.3%; Activity [15]: 5.4%; Activity [16]: 40.5%
COC(=O)C1=C(C)NC(C)=C(C(=O)OC)C1c1ccccc1[N+](=O)[O-] [NIFEDIPINE]								Activity (Aorta [19]): 0%
COc1cc2nc(N3CCN(C(=O)c4ccco4)CC3)nc(N)c2cc1OC [PRAZOSIN]								Activity (Aorta [20]): 0%; Activity (Aorta [21]): 0%
